{"source": "patent US20230331739A1", "about": "“INDOLO HEPTAMYL OXIME ANALOG CRYSTAL AS PARP INHIBITOR AND METHOD FOR PREPARING SAME” (CHIA TAI TIANQING PHARMACEUTICAL GROUP CO., LTD., priority 2020, published 2023)", "key": {"[1]": {"assay": "Protein binding rate in plasma (equilibrium dialysis), CD-1 mouse", "type": "in vitro ADME", "conditions": "CD-1 mouse plasma, 4 h dialysis", "description": "The protein binding rates of the compound disclosed herein in plasma of human, CD-1 mice and SD rats were determined. 796 μL of blank plasma was taken from human, CD-1 mice or SD rats, and 4 μL of test compound working solution (400 μM) or warfarin working solution (400 μM) was added to achieve a final concentration of 2 μM of both the test compound and the warfarin in the plasma sample. The samples were mixed well. The final concentration of organic phase DMSO was 0.5%; 50 μL of test compound and warfarin plasma sample was pipetted into a sample receiving plate (in triplicate), and a corresponding volume of blank plasma or buffer was immediately added such that the final volume in each sample well was 100 μL. The volume ratio of plasma to dialysis buffer was 1:1. […] All samples were subjected to LC/MS analysis after protein precipitation, and the protein binding rates and the recovery rates were calculated by the following formulas: protein unbinding rate (%)=100× drug concentration passing through dialysis membrane/drug concentration not passing through dialysate; protein binding rate (%)=100−protein unbinding rate (%); recovery rate (%)=100×(drug concentration passing through dialysis membrane+drug concentration not passing through dialysate)/total drug concentration before dialysis."}, "[2]": {"assay": "Single-dose pharmacokinetic study in mice", "type": "in vivo, male C57BL/6 mice", "description": "Objectives: To evaluate the pharmacokinetic behavior in male C57BL/6 mice and to determine the drug concentrations of the compound in the plasma, liver and cerebrospinal fluid after a single dose.\nProcedures: Healthy adult male C57BL/6 mice were selected for intragastric administration. The candidate compound was mixed with an appropriate amount of 10% DMSO/90% (20% hydroxypropyl-@-cyclodextrin), vortexed and sonicated to prepare a 0.5 mg/mL clear solution for later use. After the mice were administered intravenously at 1 mg/kg and orally at 5 mg/kg, whole blood was collected at certain time points. Plasma was separated, and liver and cerebrospinal fluid were collected. After pretreatment of the samples, the drug concentration was measured by LC-MS/MS, and pharmacokinetic parameters were calculated using Phoenix WinNonlin software."}, "[3]": {"assay": "Metabolic stability in liver microsomes, rat", "type": "in vitro ADME", "conditions": "1 μM, 0.5 mg/mL", "description": "Objective: To test the metabolic stability of the test compound in liver microsomes of three species.\nProcedures: 1 μM test compound and microsomes (0.5 mg/mL) were incubated at 37° C. in the presence of an NADPH regeneration system. Positive controls were testosterone ([…]), propylamine propiophenone (2D6 substrate) and diclofenac (2C9 substrate). At 37° C., positive controls were incubated with microsomes (0.5 mg/mL) in the presence of an NADPH regeneration system. The reaction was stopped by direct mixing of the sample with cold acetonitrile containing an internal standard at various time points (0, 5, 10, 20, 30 and 60 min). The compound and microsomes were incubated for 60 min in the absence of an NADPH regeneration system. One replicate (n=1) was set at each time point. The samples were analyzed by LC/MS/MS; the concentration of the compound was characterized by the ratio of the analyte peak area to the internal standard peak area."}, "PARP1": {"target": "PARP1 (Homo sapiens (Human), UniProt P09874)", "sequence (P09874 whole entry)": "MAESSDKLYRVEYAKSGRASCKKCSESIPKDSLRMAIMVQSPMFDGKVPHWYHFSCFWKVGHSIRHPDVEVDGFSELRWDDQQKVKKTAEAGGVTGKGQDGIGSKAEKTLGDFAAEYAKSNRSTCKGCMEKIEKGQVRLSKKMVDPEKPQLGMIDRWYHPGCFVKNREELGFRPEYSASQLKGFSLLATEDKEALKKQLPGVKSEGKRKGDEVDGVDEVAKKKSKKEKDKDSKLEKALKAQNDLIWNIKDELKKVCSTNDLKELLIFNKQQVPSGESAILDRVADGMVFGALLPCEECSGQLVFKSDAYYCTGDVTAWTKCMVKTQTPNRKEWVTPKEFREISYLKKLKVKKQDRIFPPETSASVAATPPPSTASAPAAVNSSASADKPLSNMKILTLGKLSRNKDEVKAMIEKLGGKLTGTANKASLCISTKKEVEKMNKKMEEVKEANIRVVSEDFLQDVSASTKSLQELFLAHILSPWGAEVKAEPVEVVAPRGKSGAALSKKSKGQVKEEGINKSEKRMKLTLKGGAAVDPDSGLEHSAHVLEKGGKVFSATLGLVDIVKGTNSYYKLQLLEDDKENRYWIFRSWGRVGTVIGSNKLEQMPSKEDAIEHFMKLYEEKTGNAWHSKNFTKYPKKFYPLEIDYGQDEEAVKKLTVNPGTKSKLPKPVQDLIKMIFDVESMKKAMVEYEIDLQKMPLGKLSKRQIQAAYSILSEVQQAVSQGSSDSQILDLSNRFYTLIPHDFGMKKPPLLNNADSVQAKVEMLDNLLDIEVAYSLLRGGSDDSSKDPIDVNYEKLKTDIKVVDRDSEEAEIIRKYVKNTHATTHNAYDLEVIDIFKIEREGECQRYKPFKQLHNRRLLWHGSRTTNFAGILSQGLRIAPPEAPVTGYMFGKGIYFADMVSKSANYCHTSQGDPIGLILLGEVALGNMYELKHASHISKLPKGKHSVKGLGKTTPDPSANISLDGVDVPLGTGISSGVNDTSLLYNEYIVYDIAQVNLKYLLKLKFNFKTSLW", "assay": "PARP-1 enzymatic assay (HT Universal Chemiluminescent PARP Assay kit)", "type": "biochemical", "description": "Materials: test compounds; HT Universal Chemiluminescent PARP Assay kit (purchased from TREVIGEN); PBS (phosphate buffer saline, purchased from Wisent); Triton X-100 (purchased from Macklin); Envision Multimode Plate Reader (PerkinElmer).\n1. Washing solution: Triton X-100 was added to 1×PBS with a final concentration of Triton X-100 of 0.1%.\n2. 1×PARP buffer: The 20×PARP buffer in the kit was 20-fold diluted with water to prepare a 1×PARP buffer, which was used to prepare the compounds, enzyme solutions and substrate solutions.\n3. 1×Strep-Diluent solution: The 10×Strep-diluent in the kit was 10-fold diluted with water to prepare a 1×Strep-diluent solution.\nThe test compounds were diluted from 200 μM to 2.56 nM. The DMSO concentration was 100%. 2 μL of each of the inhibitors at various concentration gradients was added to a compound intermediate plate, and 38 μL of the 1×PARP buffer was then added. The two were mixed well for use, and the DMSO concentration was 5% at this time.\na) The 1×PARP buffer was added to a test plate at 50 μL per well, and the test plate was incubated at 25° C. for 30 min. […]\nPeroxyGlow A and B in the kit were mixed at a ratio of 1:1, and the mixed solution was added to the test plate at 100 μL per well. Chemiluminescence was immediately read using a PerkinElmer Envision Multimode Plate Reader with an integration time of 0.5 s. […]"}, "[4]": {"conditions": "male, C57BL/6, mouse, plasma, IV: 1 mg/kg PO: 5 mg/kg"}}, "note": "Like-named read-outs stand apart in the source and are kept apart here.", "data": [{"smiles": "C[C@]1(c2ccc(-c3[nH]c4cc(F)cc5c4c3CONC5=O)cc2)CCCN1", "note": "[Compound 1]", "values": [{"measurement": "fraction unbound at 4 h, 2 μM", "setting": "[1]", "value": 0.104}, {"measurement": "Maximum concentration", "setting": "[2]; IV: 1 mg/kg PO: 5 mg/kg", "value": 240, "unit": "nM"}, {"measurement": "AUC(0-t)", "setting": "[2]; male, C57BL/6, mouse, plasma, IV 1 mg/kg, read-out: AUC0-last (intravenous injection)", "value": 0.958, "unit": "µM·h"}, {"measurement": "bioavailability", "setting": "[2]; [4]", "value": 24.8, "unit": "%"}, {"measurement": "half-life", "setting": "[2]; [4]", "value": 3.02, "unit": "h"}, {"measurement": "Vd", "setting": "[2]; male, C57BL/6, mouse, plasma, IV: 1 mg/kg PO: 5 mg/kg, read-out: Apparent volume of distribution", "value": 9.44, "unit": "L/kg"}, {"measurement": "clearance", "setting": "[2]; male, C57BL/6, mouse, plasma, IV: 1 mg/kg PO: 5 mg/kg, read-out: Clearance rate", "value": 41, "unit": "mL/min/kg"}, {"measurement": "AUC(0-t)", "setting": "[2]; male, C57BL/6, mouse, plasma, PO 5 mg/kg, read-out: AUC0-last (oral)", "value": 1.19, "unit": "µM·h"}, {"measurement": "Residual content after 60 min of incubation", "setting": "[3]", "value": 31.8, "unit": "%"}, {"measurement": "IC50", "setting": "PARP1", "value": 2.3, "unit": "nM"}]}]}
